In patent US6716833B2, “Acetylenic α-amino acid-based sulfonamide hydroxamic acid tace inhibitors” (priority 1999, dated 2004) one finds IC50, melting point and inhibition data, which are given here for nine compounds.

One series concerns the target T1, MMP-1 (Homo sapiens, UniProt P03956).
T1 sequence (P03956 100-469): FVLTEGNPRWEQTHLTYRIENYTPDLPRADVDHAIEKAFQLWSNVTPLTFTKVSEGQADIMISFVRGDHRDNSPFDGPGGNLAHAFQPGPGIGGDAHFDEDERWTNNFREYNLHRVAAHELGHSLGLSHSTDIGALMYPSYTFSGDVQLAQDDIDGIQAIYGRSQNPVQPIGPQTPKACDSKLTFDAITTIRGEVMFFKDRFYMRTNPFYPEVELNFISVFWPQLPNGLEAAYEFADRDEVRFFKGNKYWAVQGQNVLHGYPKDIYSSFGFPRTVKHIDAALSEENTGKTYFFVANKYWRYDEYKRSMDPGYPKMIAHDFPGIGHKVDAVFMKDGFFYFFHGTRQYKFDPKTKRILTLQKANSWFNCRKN
In words: MMP-1 inhibition (thiopeptide or fluorescent peptide substrate). Type of series: biochemical. Particulars: read-out: MMP-1 IC50.

Series [1] has as its target TNF-α converting enzyme (TACE) (Homo sapiens, UniProt P78536). In words: TACE inhibition (fluorescent peptidyl substrate). Particulars: read-out: TACE IC50. Type of series: biochemical.
A further series concerns the target MMP-9 (Homo sapiens, UniProt P14780). In words: MMP-9 inhibition (thiopeptide or fluorescent peptide substrate). It counts as biochemical. Particulars: read-out: MMP-9 IC50.
Another series addresses MMP-13 (Homo sapiens, UniProt P45452). In words: MMP-13 inhibition (thiopeptide or fluorescent peptide substrate). It counts as biochemical. Particulars: read-out: MMP-13 IC50.
The test system of another series is THP-1 cells. In words: THP-1 soluble protein assay, soluble TNF-α (ELISA). Particulars: Homo sapiens, THP-1, 3 μM; THP-1 cells; read-out: THP % Inhibition @ 3 μM. Type of series: cell-based, human. For orientation: In an ELISA, binding on a coated surface is turned into a signal by an enzyme label.

MMP-9, sequence (P14780 94-707): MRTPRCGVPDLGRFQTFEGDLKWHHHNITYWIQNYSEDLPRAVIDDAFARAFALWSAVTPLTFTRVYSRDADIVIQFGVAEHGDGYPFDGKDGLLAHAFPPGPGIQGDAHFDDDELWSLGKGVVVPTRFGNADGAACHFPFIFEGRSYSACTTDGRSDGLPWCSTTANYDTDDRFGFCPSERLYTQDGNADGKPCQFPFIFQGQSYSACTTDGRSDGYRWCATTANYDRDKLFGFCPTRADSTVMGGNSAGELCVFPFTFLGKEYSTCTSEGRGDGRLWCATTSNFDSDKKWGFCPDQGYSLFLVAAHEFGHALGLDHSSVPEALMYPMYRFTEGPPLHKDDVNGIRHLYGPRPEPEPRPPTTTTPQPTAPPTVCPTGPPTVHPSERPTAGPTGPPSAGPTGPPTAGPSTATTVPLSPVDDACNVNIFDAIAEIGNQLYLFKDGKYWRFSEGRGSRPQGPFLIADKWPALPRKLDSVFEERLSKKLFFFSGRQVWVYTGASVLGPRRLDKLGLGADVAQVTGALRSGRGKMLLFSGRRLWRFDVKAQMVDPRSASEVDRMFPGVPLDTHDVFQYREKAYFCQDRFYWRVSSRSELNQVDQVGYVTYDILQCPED
TNF-α converting enzyme (TACE), sequence (P78536 215-824, species assumed): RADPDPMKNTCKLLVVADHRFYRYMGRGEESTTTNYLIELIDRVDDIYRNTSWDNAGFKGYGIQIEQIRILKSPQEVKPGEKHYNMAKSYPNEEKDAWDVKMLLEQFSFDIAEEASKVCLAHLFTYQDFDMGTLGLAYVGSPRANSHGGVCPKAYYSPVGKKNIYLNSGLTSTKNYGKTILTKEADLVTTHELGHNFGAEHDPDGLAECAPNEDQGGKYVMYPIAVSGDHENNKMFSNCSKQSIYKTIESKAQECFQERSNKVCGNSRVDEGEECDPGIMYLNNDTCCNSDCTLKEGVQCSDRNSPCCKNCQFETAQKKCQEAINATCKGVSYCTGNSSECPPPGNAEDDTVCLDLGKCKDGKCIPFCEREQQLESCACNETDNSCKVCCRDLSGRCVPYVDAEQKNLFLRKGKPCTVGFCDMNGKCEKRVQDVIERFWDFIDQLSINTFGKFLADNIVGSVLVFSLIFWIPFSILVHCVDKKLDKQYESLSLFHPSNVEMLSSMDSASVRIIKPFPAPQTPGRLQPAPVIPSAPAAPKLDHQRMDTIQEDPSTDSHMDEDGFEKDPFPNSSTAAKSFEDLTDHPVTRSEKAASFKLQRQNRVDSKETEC
Description for MMP-13: (§1) The enzyme activity is measured by the rate of the color increase. The thiopeptide substrate is made up fresh as a 20 mM stock in 100% DMSO and the DTNB is dissolved in 100% DMSO as a 100 mM stock and stored in the dark at room temperature. Both the substrate and DTNB are diluted together to 1 mM with substrate buffer (50 mM HEPES pH 7.5, 5 mM CaCl2) before use. The stock of enzyme is diluted with buffer (50 mM HEPES, pH 7.5, 5 mM CaCl2, 0.02% Brij) to the desired final concentration.
(§2) Alternatively, a fluorescent peptide substrate is used. In this test procedure, the peptide substrate contains a fluorescent group and a quenching group. Upon cleavage of the substrate by an MMP, the fluorescence that is generated is quantitated on the fluorescence plate reader. The assay is run in HCBC assay buffer (50 mM HEPES, pH 7.0, 5 mM Ca^+2, 0.02% Brij, 0.5% Cysteine), with human recombinant MMP-1, MMP-9, or MMP-13. […] For the assay, substrate and enzymes are diluted in HCBC buffer to the desired concentrations. Compounds are added to the 96 well plate containing enzyme and the reaction is started by the addition of substrate.
(§3) For either the thiopeptide or fluorescent peptide test procedures, the slope of the line is calculated and represents the reaction rate. The linearity of the reaction rate is confirmed (r^2>0.85). The mean (x±sem) of the control rate is calculated and compared for statistical significance (p<0.05) with drug-treated rates using Dunnett's multiple comparison test.
Description for MMP-9: as §1, §2, §3
Description for THP-1 cells: Each vial of cells are cultured for about two weeks prior to being used for an assay and then are used for only 4 to 6 weeks to screen compounds.
Cell exposure to DMSO was limited to 0.1% final concentration. […] Plates are placed into an incubator set at 5% CO2 and at 37° C. After 4 hours of incubation, 300 ml/well of tissue culture supernatant (TCS) is removed for use in an TNF-α ELISA.
Percent change in each soluble protein evaluated from the “vehicle positive control” was calculated for each compound concentration with the following formula:
% Change=pg/ml (compound)−pg/ml (veh pos control)/(veh pos control)−pg/ml (veh neg control)×100
For the soluble protein (TNF-α, p75/80, p55/60, IL-8) studies under stimulated conditions, the mean pg/ml of duplicate wells were determined and the results expressed as percent change from “vehicle positive control”.

Broadly, the IC50 is the point on the concentration scale where inhibition reaches its midpoint. By melting point is commonly meant the temperature, or range, at which the solid turns liquid. As a reminder, the inhibition is the percentage by which the read-out fell short of the control. For `CC#CCOc1ccc(S(=O)(=O)N[C@@H](C(=O)NO)C(C)(C)SC)cc1` [Example 158], the melting point was 128 to 132 °C. Moreover, on MMP-1, the IC50 was determined as 1020 nM. Further, the 50% inhibitory concentration (IC50) in series [1] is 25 nM. Further, on MMP-9, the IC50 is 164 nM. In addition, at MMP-13, the IC50 is 30 nM. In addition, the inhibition at 3 µM with THP-1 cells is 78%.
For `CC#CCOc1ccc(S(=O)(=O)NC(C(=O)NO)C(C)(C)SCc2ccccc2)cc1` (stereo not drawn) [Example 162], the melting point lay within 92 to 95 °C. The IC50 on MMP-1 worked out at 310 nM. In addition, in series [1], the IC50 stood at 19 nM. For the same compound, on MMP-9, the IC50 worked out at 138 nM. The IC50 on MMP-13 is 8.3 nM. For the same compound, the inhibition at 3 µM in the series on THP-1 cells was 49%.
For `CC#CCOc1ccc(S(=O)(=O)N[C@@H](C(=O)NO)C2CCC(O)CC2)cc1` (stereo partly drawn) [Example 129, (2R)-{[4-(2-Butynyloxy)phenyl]sulfonyl}amino-N-hydroxy-2-(4-hydroxycyclohexyl)ethanamide], the melting point lay in the range of 180 to 182 °C. The IC50 on MMP-1 was 1040 nM. The IC50 in series [1] came to 7.4 nM. For the same compound, the IC50 at MMP-9 was 192 nM. Moreover, the IC50 at MMP-13 worked out at 28 nM. Also, the inhibition at 3 µM in the series with THP-1 cells turned out to be 92%.
`CC#CCOc1ccc(S(=O)(=O)NC(C(=O)NO)C(C)(C)SCCC)cc1` (stereo not drawn) [Example 160, 2-[(4-but-2-ynyloxy-Benenesulfonyl)-amino]-N-hydroxy-3-methyl-3-propylsulfanyl-butyramide] displayed a melting point of 152 to 155 °C. For the same compound, the IC50 at MMP-1 worked out at 1400 nM. In series [1], the IC50 is 15 nM. Further, the IC50 on MMP-9 came to 1010 nM. For the same compound, the IC50 at MMP-13 was 65 nM. Besides, in the series on THP-1 cells, the inhibition at 3 µM came out at 67%.
`CC#CCOc1ccc(S(=O)(=O)NC2(C(=O)NO)CCCC2)cc1` [Example 139, 1-({[4-(2-Butynyloxy)phenyl]sulfonyl}amino)-N-hydroxycyclopentanecarboxamide]: the melting point is 66 to 68 °C. For the same compound, the IC50 at MMP-1 is above 10000 nM. Moreover, in series [1], the IC50 was found to be 37 nM. Also, the IC50 on MMP-9 stood at 3700 nM. Besides, the 50% inhibitory concentration (IC50) at MMP-13 turned out to be 1270 nM. Moreover, the inhibition at 3 µM in the series on THP-1 cells was 26%.
On to `CC#CCOc1ccc(S(=O)(=O)NC(C(=O)NO)C(C)(C)SCCN2CCOCC2)cc1` (stereo not drawn) [Example 164], for which the melting point came out at 72 °C. The IC50 on MMP-1 is 1570 nM. Further, in series [1], the IC50 amounted to 64 nM. For the same compound, the IC50 at MMP-9 was 204 nM. Besides, the IC50 on MMP-13 is 20 nM. The inhibition at 3 µM in the series with THP-1 cells stood at 70%.
In turn, `CC#CCOc1ccc(S(=O)(=O)NC(C(=O)NO)C(C)(C)SCC(=O)OC(C)(C)C)cc1` (stereo not drawn) [Example 165] displayed a melting point of 47 to 52 °C. For the same compound, on MMP-1, the IC50 was 2430 nM. Further, the IC50 in series [1] amounted to 69 nM. In addition, at MMP-9, the IC50 came to 587 nM. Also, the 50% inhibitory concentration (IC50) at MMP-13 was determined as 177 nM. In addition, the inhibition at 3 µM with THP-1 cells worked out at 84%.
`CC#CCOc1ccc(S(=O)(=O)NC(C(=O)NO)C(C)(C)SCc2nccn2C)cc1` (stereo not drawn) [Example 163] displayed a melting point of 112 to 115 °C. Further, the IC50 on MMP-1 came to 1720 nM. In addition, the IC50 in series [1] amounted to 18 nM. Further, on MMP-9, the IC50 was 306 nM. For the same compound, the IC50 at MMP-13 came to 47 nM. In addition, the inhibition at 3 µM in the series with THP-1 cells was 77%.
In the case of `CC#CCOc1ccc(S(=O)(=O)NC(C(=O)NO)C(C)(C)SCC)cc1` (stereo not drawn) [Example 159, 2-[(4-but-2-ynyloxy-Benenesulfonyl)-amino]-N-hydroxy-3-methyl-3-ethylsulfanyl-butyramide], the melting point lay within 46 to 50 °C. Also, the IC50 at MMP-1 came to 852 nM. Moreover, the IC50 in series [1] was found to be 12 nM. In addition, the IC50 on MMP-9 is 424 nM. Further, the IC50 at MMP-13 amounted to 42 nM. In addition, in the series with THP-1 cells, the inhibition at 3 µM was found to be 76%.
